Key:
[1] = system: kochia; assay: Test D pre-/postemergence herbicide test; format: in vivo, Kochia scoparia; conditions: for Plant response rating, Kochia: scale 0 to 100 (0 no effect, 100 complete control); for Plant response rating: Kochia, scale 0 to 100
From the text: (§1) Seeds of plant species selected from bluegrass (annual bluegrass, Poa annua), blackgrass (Alopecurus myosuroides), canarygrass (littleseed canarygrass, Phalaris minor), chickweed (common chickweed, Stellaria media), galium (catchweed bedstraw, Galium aparine), bromegrass, downy (downy bromegrass, Bromus tectorum), field poppy (Papaver rhoeas), field violet (Viola arvensis), foxtail, green (green foxtail, Setaria viridis), deadnettle (henbit deadnettle, Lamium amplexicaule), ryegrass, Italian (Italian ryegrass, Lolium multiflorum), kochia (Kochia scoparia), lambsquarters (Chenopodium album), oilseed rape (Brassica napus), pigweed (Amaranthus retroflexus), chamomile (scentless chamomile, Matricaria inodora), Russian thistle (Salsola kali), speedwell (bird's-eye speedwell, Veronica persica), barley, spring (spring barley, Hordeum vulgare), wheat, spring (spring wheat, Triticum aestivum), buckwheat, wild (wild buckwheat, Polygonum convolvulus), mustard, wild (wild mustard, Sinapis arvensis), oat, wild (wild oat, Avena fatua), radish, wild (wild radish, Raphanus raphanistrum), […]), barley, winter (winter barley, Hordeum vulgare), and wheat, winter (winter wheat, Triticum aestivum) were planted into a silt loam soil and treated preemergence with test chemicals formulated in a non-phytotoxic solvent mixture which included a surfactant. At the same time, these species were planted in pots containing Redi-Earth® planting medium (Scotts Company, 14111 Scottslawn Road, Marysville, Ohio 43041) comprising spaghnum peat moss, vermiculite, wetting agent and starter nutrients and treated with postemergence applications of the test chemicals formulated in the same manner. Plants ranged in height from 2 to 18 cm (1- to 4-leaf stage). Treated plants and controls were maintained in a controlled growth environment for 7 to 21 days after which time all species were compared to controls and visually evaluated. Plant response ratings, summarized in Table D, are based on a scale of 0 to 100 where 0 is no effect and 100 is complete control. A dash (-) response means no test result.

[2] = system: oilseed rape; assay: Test D pre-/postemergence herbicide test; format: in vivo, Brassica napus; conditions: for Plant response rating, Oilseed Rape: Preemergence, scale 0 to 100 (0 no effect, 100 complete control); for Plant response rating: Postemergence, Oilseed Rape, scale 0 to 100
From the text: as §1

[3] = system: barnyardgrass; assay: Test E preemergence herbicide test; format: in vivo, Echinochloa crus-galli; design: key: 0 = no effect, 100 = complete control
From the text: (§2) Seeds of plant species selected from corn (Zea mays), soybean (Glycine max), velvetleaf (Abutilon theophrasti), lambsquarters (Chenopodium album), wild poinsettia (Euphorbia heterophylla), pigweed, palmer (palmer pigweed, Amaranthus palmeri), waterhemp (common waterhemp, Amaranthus rudis), surinam grass (Brachiaria decumbens), crabgrass, large (large crabgrass, Digitaria sanguinalis), crabgrass, Brazil (Brazilian crabgrass, Digitaria horizontalis), panicum, fall (fall panicum, Panicum dichotomiflorum), foxtail, giant (giant foxtail, Setaria faberii), foxtail, green (green foxtail, Setaria viridis), goosegrass (Eleusine indica), johnsongrass (Sorghum halepense), ragweed (common ragweed, Ambrosia elatior), barnyardgrass (Echinochloa crus-galli), sandbur (southern sandbur, Cenchrus echinatus), arrowleaf […] rhombifolia), ryegrass, Italian (Italian ryegrass, Lolium multiflorum), dayflower, VA (Virginia dayflower, Commelina virginica), field bindweed (Convolvulus arvensis), morningglory (Ipomoea coccinea), nightshade (eastern black nightshade, Solanum ptycanthum), kochia (Kochia scoparia), nutsedge, yellow (yellow nutsedge, Cyperus esculentus), cocklebur (common cocklebur, Xanthium strumarium), smartweed (ladysthumb smartweed, Polygonum Persicaria) and beggarticks (hairy beggarticks, Bidens pilosa), were planted into a silt loam soil and treated preemergence with test chemicals formulated in a non-phytotoxic solvent mixture which included a surfactant. Treated plants and controls were maintained in a greenhouse for 21 days, after which time all species were compared to controls and visually evaluated. Plant response ratings, summarized in Table E, are based on a scale of 0 to 100 where 0 is no effect and 100 is complete control. A dash (-) response means no test result.

[4] = system: morningglory; assay: Test E preemergence herbicide test; format: in vivo, Ipomoea coccinea; design: key: 0 = no effect, 100 = complete control
From the text: as §2

[5] = system: chamomile; assay: Test D pre-/postemergence herbicide test; format: in vivo, Matricaria inodora; conditions: for Plant response rating: Chamomile, scale 0 to 100; for Plant response rating, Chamomile: scale 0 to 100 (0 no effect, 100 complete control)
From the text: as §1

SMILES	Plant response rating, Kochia ([1]; Preemergence, 62 g ai/ha)	Plant response rating, Kochia ([1]; Preemergence, 31 g ai/ha)	Plant response rating ([1]; Preemergence, 125 g ai/ha)	Plant response rating ([1]; Preemergence, 250 g ai/ha)	Plant response rating, Oilseed Rape ([2]; 62 g ai/ha)	Plant response rating, Oilseed Rape ([2]; 125 g ai/ha)	Plant response rating, Oilseed Rape ([2]; 31 g ai/ha)	Plant response rating, Oilseed Rape ([2]; 250 g ai/ha)	Plant response rating, Barnyardgrass ([3]; 31 g ai/ha)	Plant response rating, Barnyardgrass ([3]; 62 g ai/ha)	Plant response rating, Barnyardgrass ([3]; 125 g ai/ha)	Plant response rating, Barnyardgrass ([3]; 250 g ai/ha)	Plant response rating, Morningglory ([4]; 31 g ai/ha)	Plant response rating, Morningglory ([4]; 62 g ai/ha)	Plant response rating, Morningglory ([4]; 125 g ai/ha)	Plant response rating, Morningglory ([4]; 250 g ai/ha)	Plant response rating, Kochia ([1]; Preemergence, 125 g ai/ha)	Plant response rating ([5]; Postemergence, 31 g ai/ha)	Plant response rating ([5]; Postemergence, 62 g ai/ha)	Plant response rating ([5]; Postemergence, 125 g ai/ha)	further results
O=C1NCC(c2ccc(F)c(C(F)(F)F)c2)C1C(=O)Nc1cccc(F)c1F (racemic) [Compound 77]	75	35	80	85	5	5	5	5	–	–	–	–	–	–	–	–	–	–	–	–	–
O=C1NCC(c2ccc(OC(F)F)cc2)C1C(=O)Nc1cccc(F)c1F (racemic) [Compound 350]	–	–	–	–	–	–	–	–	15	40	60	98	0	0	0	0	–	–	–	–	–
O=C1NC[C@H](c2cccc(C(F)(F)F)c2)[C@H]1C(=O)Nc1cccc(F)c1F [Compound 206]	60	45	–	80	0	0	0	5	70	75	95	98	0	0	0	0	70	–	–	–	–
O=C1NCC(c2ccc(C(F)(F)F)cc2)C1C(=O)Nc1ccccc1F (stereo not drawn) [Compound 231]	20	0	–	85	0	45	0	55	–	–	–	–	–	–	–	–	80	20	25	50	Plant response rating ([5]; Postemergence, 250 g ai/ha): 50; Plant response rating, Chamomile ([5]; Preemergence, 62 g ai/ha): 75; Plant response rating, Chamomile ([5]; Preemergence, 125 g ai/ha): 80; Plant response rating, Chamomile ([5]; Preemergence, 31 g ai/ha): 75; Plant response rating ([5]; Preemergence, 250 g ai/ha): 100; Plant response rating ([1]; Postemergence, 31 g ai/ha): 55; Plant response rating ([1]; Postemergence, 62 g ai/ha): 60; Plant response rating ([1]; Postemergence, 125 g ai/ha): 60; Plant response rating ([1]; Postemergence, 250 g ai/ha): 65; Plant response rating ([2]; 31 g ai/ha): 15; Plant response rating ([2]; 62 g ai/ha): 10; Plant response rating ([2]; 125 g ai/ha): 20; Plant response rating ([2]; 250 g ai/ha): 40
O=C1NC[C@H](c2cccc(C(F)(F)F)c2)[C@H]1C(=O)Nc1ccccc1F [Compound 204, (3R,4S)—N-(2-fluorophenyl)-2-oxo-4-[3-(trifluoromethyl)phenyl]-3-pyrrolidinecarboxamide]	45	20	–	70	0	0	0	0	20	75	98	98	0	0	20	30	15	–	–	–	–
O=C1NCC(c2ccc(F)c(F)c2)C1C(=O)Nc1ccccc1C(F)(F)F (racemic) [Compound 6]	30	0	40	50	0	10	0	20	–	–	–	–	–	–	–	–	–	0	0	0	Plant response rating ([5]; Postemergence, 16 g ai/ha): 0; Plant response rating ([5]; Postemergence, 250 g ai/ha): 0; Plant response rating, Chamomile ([5]; Preemergence, 62 g ai/ha): 30; Plant response rating, Chamomile ([5]; Preemergence, 16 g ai/ha): 0; Plant response rating, Chamomile ([5]; Preemergence, 31 g ai/ha): 0; Plant response rating ([5]; Preemergence, 125 g ai/ha): 70; Plant response rating ([5]; Preemergence, 250 g ai/ha): 90; Plant response rating ([1]; Postemergence, 16 g ai/ha): 0; Plant response rating ([1]; Postemergence, 31 g ai/ha): 5; Plant response rating ([1]; Postemergence, 62 g ai/ha): 5; Plant response rating ([1]; Postemergence, 125 g ai/ha): 5; Plant response rating ([1]; Postemergence, 250 g ai/ha): 10; Plant response rating, Kochia ([1]; Preemergence, 16 g ai/ha): 0; Plant response rating ([2]; 16 g ai/ha): 10; Plant response rating ([2]; 31 g ai/ha): 10; Plant response rating ([2]; 62 g ai/ha): 10; Plant response rating ([2]; 125 g ai/ha): 15; Plant response rating ([2]; 250 g ai/ha): 20; Plant response rating, Oilseed Rape ([2]; 16 g ai/ha): 0
O=C1NCC(c2cc(F)c(F)cc2F)C1C(=O)Nc1cccc(F)c1F (stereo not drawn) [Compound 50]	10	10	0	–	0	0	0	–	–	–	–	–	–	–	–	–	–	0	0	0	Plant response rating ([5]; Postemergence, 16 g ai/ha): 0; Plant response rating, Chamomile ([5]; Preemergence, 62 g ai/ha): 0; Plant response rating, Chamomile ([5]; Preemergence, 16 g ai/ha): 0; Plant response rating, Chamomile ([5]; Preemergence, 31 g ai/ha): 0; Plant response rating ([5]; Preemergence, 125 g ai/ha): 5; Plant response rating ([1]; Postemergence, 16 g ai/ha): 10; Plant response rating ([1]; Postemergence, 31 g ai/ha): 15; Plant response rating ([1]; Postemergence, 62 g ai/ha): 15; Plant response rating ([1]; Postemergence, 125 g ai/ha): 0; Plant response rating, Kochia ([1]; Preemergence, 16 g ai/ha): 5; Plant response rating ([2]; 16 g ai/ha): 5; Plant response rating ([2]; 31 g ai/ha): 5; Plant response rating ([2]; 62 g ai/ha): 5; Plant response rating ([2]; 125 g ai/ha): 5; Plant response rating, Oilseed Rape ([2]; 16 g ai/ha): 0

Source: US10294202B2, “Pyrrolidinones as herbicides” (FMC Corporation, priority 2013, dated 2019)
